# Measurements as given in patent US6737383B1, “Herbicidal oxadiazolidines” (priority 1999, dated 2004).
# Experiments:
# crabgrass = assay: Test B pre/postemergence crabgrass; format: in vivo, Digitaria sanguinalis
# In short: (§1)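 Test chemicals in a non-phytotoxic solvent mixture with surfactant were sprayed preemergence onto planted seeds and postemergence onto plants 2 to 18 cm tall (1- to 4-leaf stage). After twelve to sixteen days in a greenhouse, injury was visually rated against untreated controls from 0 (no effect) to 10 (complete control).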
# morningglory = assay: Test B pre/postemergence morningglory; format: in vivo, Ipomoea hederacea
# In short: as §1
# giant foxtail = assay: Test B pre/postemergence giant foxtail; format: in vivo, Setaria faberii
# In short: as §1
# blackgrass = assay: Test B pre/postemergence blackgrass; format: in vivo, Alopecurus myosuroides
# In short: as §1
# purple nutsedge = assay: Test B pre/postemergence purple nutsedge; format: in vivo, Cyperus rotundus
# In short: as §1
# pigweed = assay: Test B pre/postemergence pigweed; format: in vivo, Amaranthus retroflexus
# In short: as §1
# corn = assay: Test B pre/postemergence corn; format: in vivo, Zea mays
# In short: as §1
# bedstraw = assay: Test B pre/postemergence bedstraw; format: in vivo, Galium aparine
# In short: as §1
# rape = assay: Test B pre/postemergence rape; format: in vivo, Brassica napus
# In short: as §1
# wild oat = assay: Test B pre/postemergence wild oat; format: in vivo, Avena fatua
# In short: as §1
# cocklebur = assay: Test B pre/postemergence cocklebur; format: in vivo, Xanthium strumarium
# In short: as §1
# velvetleaf = assay: Test B pre/postemergence velvetleaf; format: in vivo, Abutilon theophrasti
# In short: as §1
# surinam grass = assay: Test B pre/postemergence surinam grass; format: in vivo, Brachiaria decumbens
# In short: as §1
# wheat = assay: Test B pre/postemergence wheat; format: in vivo, Triticum aestivum
# In short: as §1
# soybean = assay: Test B pre/postemergence soybean; format: in vivo, Glycine max
# In short: as §1
# sugar beet = assay: Test B pre/postemergence sugar beet; format: in vivo, Beta vulgaris
# In short: as §1
# [1] = Postemergence, Rate 62 g/ha, scale 0 to 10, 0 is no effect, 10 is complete control
# [2] = Postemergence, Rate 125 g/ha, scale of 0 to 10 where 0 is no effect and 10 is complete control
# [3] = Preemergence, Rate 125 g/ha, scale of 0 to 10 where 0 is no effect and 10 is complete control
# [4] = Preemergence, Rate 250 g/ha, scale 0 (no effect) to 10 (complete control)
# [5] = Rate 62 g/ha, Preemergence, scale 0 to 10
# [6] = Rate 250 g/ha, Postemergence, scale 0 to 10, 0 is no effect, 10 is complete control
# [7] = Rate 500 g/ha, Preemergence, scale 0 to 10 (0 no effect, 10 complete control)
# [8] = Rate 500 g/ha, Postemergence, scale 0 to 10, 0 is no effect, 10 is complete control
structure (smiles),measurement,setting,value
CC(C)N(C(=O)n1oc(=O)n(CCCCl)c1=O)c1ccccc1 [Compound 750],"Plant response rating, Crabgrass",crabgrass; [1],7
same,Crabgrass plant response rating,crabgrass; [2],9
same,"Plant response rating, Crabgrass",crabgrass; [3],9
same,Crabgrass plant response rating,crabgrass; [4],9
same,Crabgrass plant response rating,crabgrass; [5],9
same,Crabgrass plant response rating,crabgrass; [6],9
same,Crabgrass plant response rating,crabgrass; [7],10
same,"Plant response rating, Morningglory",morningglory; [1],3
same,Morningglory plant response rating,morningglory; [2],3
same,"Plant response rating, Morningglory",morningglory; [3],0
same,Morningglory plant response rating,morningglory; [4],6
same,Morningglory plant response rating,morningglory; [5],0
same,Morningglory plant response rating,morningglory; [6],8
same,Morningglory plant response rating,morningglory; [8],10
same,Morningglory plant response rating,morningglory; [7],6
same,"Plant response rating, Giant foxtail",giant foxtail; [1],9
same,Giant foxtail plant response rating,giant foxtail; [2],8
same,"Plant response rating, Giant foxtail",giant foxtail; [3],10
same,Giant foxtail plant response rating,giant foxtail; [4],10
same,Giant foxtail plant response rating,giant foxtail; [5],9
same,Giant foxtail plant response rating,giant foxtail; [6],8
same,Giant foxtail plant response rating,giant foxtail; [8],8
same,Giant foxtail plant response rating,giant foxtail; [7],10
same,"Plant response rating, Blackgrass",blackgrass; [1],4
same,Blackgrass plant response rating,blackgrass; [2],7
same,"Plant response rating, Blackgrass",blackgrass; [3],8
same,Blackgrass plant response rating,blackgrass; [4],8
same,Blackgrass plant response rating,blackgrass; [5],7
same,Blackgrass plant response rating,blackgrass; [6],7
same,Blackgrass plant response rating,blackgrass; [8],8
same,"Plant response rating, Nutsedge",purple nutsedge; [1],0
same,Nutsedge plant response rating,purple nutsedge; [2],0
same,"Plant response rating, Nutsedge",purple nutsedge; [3],0
same,Nutsedge plant response rating,purple nutsedge; [4],7
same,Nutsedge plant response rating,purple nutsedge; [5],0
same,Nutsedge plant response rating,purple nutsedge; [6],7
same,Nutsedge plant response rating,purple nutsedge; [7],9
same,"Plant response rating, Redroot pigweed",pigweed; [1],4
same,Redroot pigweed plant response rating,pigweed; [2],7
same,"Plant response rating, Redroot pigweed",pigweed; [3],9
same,Redroot pigweed plant response rating,pigweed; [4],10
same,Redroot pigweed plant response rating,pigweed; [5],7
same,Redroot pigweed plant response rating,pigweed; [6],7
same,Redroot pigweed plant response rating,pigweed; [8],7
same,"Plant response rating, Corn",corn; [1],0
same,Corn plant response rating,corn; [2],0
same,"Plant response rating, Corn",corn; [3],3
same,Corn plant response rating,corn; [5],0
same,Corn plant response rating,corn; [6],0
same,Corn plant response rating,corn; [8],5
same,Corn plant response rating,corn; [7],6
same,"Plant response rating, Bedstraw",bedstraw; [1],5
same,"Plant response rating, Bedstraw",bedstraw; [3],0
same,Bedstraw plant response rating,bedstraw; [4],0
same,Bedstraw plant response rating,bedstraw; [5],0
same,Bedstraw plant response rating,bedstraw; [6],7
same,Bedstraw plant response rating,bedstraw; [8],10
same,"Plant response rating, Rape",rape; [1],0
same,Rape plant response rating,rape; [2],4
same,"Plant response rating, Rape",rape; [3],0
same,Rape plant response rating,rape; [4],8
same,Rape plant response rating,rape; [5],0
same,Rape plant response rating,rape; [6],6
same,Rape plant response rating,rape; [8],7
same,"Plant response rating, Wild oats",wild oat; [1],0
same,Wild oats plant response rating,wild oat; [2],0
same,"Plant response rating, Wild oats",wild oat; [3],5
same,Wild oats plant response rating,wild oat; [4],7
same,Wild oats plant response rating,wild oat; [5],0
same,Wild oats plant response rating,wild oat; [6],0
same,Wild oats plant response rating,wild oat; [8],0
same,"Plant response rating, Cocklebur",cocklebur; [1],0
same,Cocklebur plant response rating,cocklebur; [2],0
same,"Plant response rating, Cocklebur",cocklebur; [3],0
same,Cocklebur plant response rating,cocklebur; [4],0
same,Cocklebur plant response rating,cocklebur; [5],0
same,Cocklebur plant response rating,cocklebur; [6],1
same,Cocklebur plant response rating,cocklebur; [8],3
same,Cocklebur plant response rating,cocklebur; [7],0
same,"Plant response rating, Velvetleaf",velvetleaf; [1],0
same,Velvetleaf plant response rating,velvetleaf; [2],3
same,"Plant response rating, Velvetleaf",velvetleaf; [3],0
same,Velvetleaf plant response rating,velvetleaf; [4],7
same,Velvetleaf plant response rating,velvetleaf; [5],0
same,Velvetleaf plant response rating,velvetleaf; [6],5
same,Velvetleaf plant response rating,velvetleaf; [8],6
same,Velvetleaf plant response rating,velvetleaf; [7],7
same,"Plant response rating, B. signalgrass",surinam grass; [1],0
same,B. signalgrass plant response rating,surinam grass; [2],2
same,B. signalgrass plant response rating,"surinam grass; Preemergence, Rate 62 g/ha, scale of 0 to 10 where 0 is no effect and 10 is complete control",5
same,"Plant response rating, B. signalgrass",surinam grass; [3],10
same,B. signalgrass plant response rating,surinam grass; [4],8
same,B. signalgrass plant response rating,surinam grass; [6],6
same,B. signalgrass plant response rating,surinam grass; [8],6
same,"Plant response rating, Wheat",wheat; [1],0
same,Wheat plant response rating,wheat; [2],0
same,"Plant response rating, Wheat",wheat; [3],4
same,Wheat plant response rating,wheat; [4],5
same,Wheat plant response rating,wheat; [5],2
same,Wheat plant response rating,wheat; [6],2
same,Wheat plant response rating,wheat; [8],2
same,"Plant response rating, Soybean",soybean; [1],2
same,Soybean plant response rating,soybean; [2],6
same,"Plant response rating, Soybean",soybean; [3],0
same,Soybean plant response rating,soybean; [4],5
same,Soybean plant response rating,soybean; [5],0
same,Soybean plant response rating,soybean; [6],7
same,Soybean plant response rating,soybean; [8],7
same,Soybean plant response rating,soybean; [7],5
same,"Plant response rating, Sugarbeets",sugar beet; [1],0
same,Sugarbeets plant response rating,sugar beet; [2],3
same,"Plant response rating, Sugarbeets",sugar beet; [3],3
same,Sugarbeets plant response rating,sugar beet; [4],5
same,Sugarbeets plant response rating,sugar beet; [5],1
same,Sugarbeets plant response rating,sugar beet; [6],3
same,Sugarbeets plant response rating,sugar beet; [8],6
